Experimental data published in paper PMC3424241, “The Octadecaneuropeptide ODN Protects Astrocytes against Hydrogen Peroxide-Induced Apoptosis via a PKA/MAPK-Dependent Mechanism” (PLoS ONE, 2012).

Columns and labels:
cultured rat astrocytes [1] = settings: ODN 0.1 nM, 300 µM H2O2; cited from earlier work
Method: In order to determine the receptor involved in the protective effect of ODN, we have first examined the dose- and the time-course effect of the peptide on detrimental action of H2O2. The protective action of ODN was concentration-dependent for doses ranging from 1 fM to 0.1 nM (Figure 1A). […] The protectiv ...

Bax = Bax mRNA level, quantitative RT-PCR; assay type: cell-based, rat; settings: ODN 0.1 nM
Method: (§1) Secondary cultures of rat cortical astrocytes were prepared as previously described [64]with minor modifications. Briefly, cerebral hemispheres from newborn Wistar rats were collected in DMEM/F12 (2∶1; v/v) culture medium supplemented with 2 mM L-glutamine, 1‰ insulin, 5 mM HEPES, 0.4% glucose and 1% of the antibiotic-antimycotic solution. The tissues were dissociated mechanically with a syringe equipped with a 1-mm gauge needle, and filtered through a 100-µm sieve (Falcon, Franklin Lakes, NJ, USA). Dissociated cells were resuspended in culture medium supplemented with 10% FBS, plated in 175-cm^2 flasks (Greiner Bio-one GmbH, Frickenhausen, Germany) and incubated at 37°C in a 5% CO2/[…] atmosphere. When cultures were confluent, astrocytes were isolated by shaking overnight the flasks on an orbital agitator. Adhesive cells were detached by trypsination and preplated for 5 min to discard contaminating microglial cells. Then, the non-adhering astrocytes were harvested and plated on 35-mm hydrophilic surface Petri dishes at a density of 3×10^5 cells/ml. […]
Cultured cells were incubated at 37°C for 1 h with fresh serum-free medium in the absence or presence of test substances. […] The amount of Bax and Bcl-2 cDNA in each sample was calculated by the comparative threshold cycle (Ct) method and expressed as 2^exp(−ΔΔCt) using glyceraldehyde-3-phosphate dehydrogenase as an internal control.

[2] = tested on: glutathione (GSH) in cultured astrocytes; experiment: Intracellular glutathione content, mBCl fluorescence; assay type: cell-based, rat
Method: (§2) Secondary cultures of rat cortical astrocytes were prepared as previously described [64]with minor modifications. Briefly, cerebral hemispheres from newborn Wistar rats were collected in DMEM/F12 (2∶1; v/v) culture medium supplemented with 2 mM L-glutamine, 1‰ insulin, 5 mM HEPES, 0.4% glucose and 1% of the antibiotic-antimycotic solution. The tissues were dissociated mechanically with a syringe equipped with a 1-mm gauge needle, and filtered through a 100-µm sieve (Falcon, Franklin Lakes, NJ, USA). Dissociated cells were resuspended in culture medium supplemented with 10% FBS, plated in 175-cm^2 flasks (Greiner Bio-one GmbH, Frickenhausen, Germany) and incubated at 37°C in a 5% CO2/[…] atmosphere. When cultures were confluent, astrocytes were isolated by shaking overnight the flasks on an orbital agitator. Adhesive cells were detached by trypsination and preplated for 5 min to discard contaminating microglial cells. Then, the non-adhering astrocytes were harvested and plated on 35-mm hydrophilic surface Petri dishes at a density of 3×10^5 cells/ml. For measurement of cell survival, caspase-3 activity and mitochondrial activity, cells were plated in hydrophilic surface 24-well plates at a density of 8×10^4 cells/ml. The cells were incubated at 37°C in a humid atmosphere (5% CO2). After 5 days (DIV5), more than 99% of the cells were labeled with antibodies against glial fibrillary acidic protein [65]. All experiments were performed on 5- to 7-day-old secondary cultures.
Reduced GSH was measured by using the thiol-reactive probe mBCl. At the end of the treatment period, the culture medium was removed and the cells were incubated with the mBCl probe (40 µM) at 37°C for 30 min and then washed twice with PBS. Fluorescence intensity was measured with excitation at 360 nm and emission at 485 nm, using a microplate reader (Bio-Tek FLx 800).

[3] = tested on: mitochondria of cultured astrocytes; experiment: Mitochondrial membrane potential, JC-1 probe; assay type: cell-based, rat; settings: ODN 0.1 nM, 10 min pretreatment, then 1 h 300 µM H2O2
Method: as §1
Cells seeded into 24-well plates were subjected to various treatments, incubated in the presence of the JC-1 probe (3 µl/ml) at 37°C for 15 min and then washed twice with PBS. Mitochondrial integrity was assessed with the JC-1 probe. […]

caspase-3 = tested on: caspase-3; parameters: method as in PMID 21599667; settings: subnanomolar concentrations of ODN, cultured astrocytes; cited from earlier work
cultured rat astrocytes [4] = experiment: Living-cell staining and morphology with calcein-AM after H2O2; assay type: cell-based; settings: ODN 0.1 nM pretreatment 10 min, then 1 h 300 µM H2O2; calcein-AM staining
Method: as §1, with “cells.” for “cells. Then, the non-adhering astrocytes were harvested and plated on 35-mm hydrophilic surface Petri dishes at a density of 3×10^5 cells/ml.”
Cultured cells were incubated at 37°C with fresh serum-free culture medium in the absence or presence of H2O2 and/or ODN for 1 h. Cells were then incubated for 10 min at 37°C with 0.3 µg/ml calcein-AM (producing green fluorescence in living cells), rinsed twice with culture medium without probe and examined on an inverted microscope (Leica, Heidelberg, Germany) equipped with a double pass filter.

ERK1 and ERK2 = experiment: ERK phosphorylation, Western blot; assay type: cell-based, rat
Method: as §2
Cultured cells were incubated at 37°C for 1 h with fresh serum-free medium in the absence or presence of test substances. Total proteins were extracted with lysis buffer containing 1% Triton X-100, 50 mM Tris/HCl and 10 mM EDTA. After centrifugation (20,000 g, 4°C, 15 min), the proteins contained in the supernatant were precipitated by addition of ice-cold 10% TCA. The extract was centrifuged (15,000 g, 4°C, 15 min) and washed three times with alcohol/ether. The pellet was denatured (100°C, 5 min) in 50 mM Tris/HCl (pH 7.5) containing 20% glycerol, 0.7 M 2-mercaptoethanol, 0.004% bromophenol blue and 3% SDS, and then migrated on a 10% SDS-polyacrylamide gel electrophoresis (PAGE). After separation, proteins were electrically transferred onto nitrocellulose membrane (Amersham, Les Ulis, France). […] Signal was quantified using an image analysis system (Biocom, Les Ulis, France).

ODN: octadecaneuropeptide, endozepine derived from diazepam-binding inhibitor; endogenous ligand of central-type benzodiazepine and metabotropic receptors; synthesized by Fmoc procedure (QATVGDVNTDRPGLLDLK; Octadecaneuropeptide; UniProt P11030 34-51, looked up)
effect on H2O2-induced astrocyte cell death (cultured rat astrocytes [1]): able to reverse the effect of 300 µM H2O2-induced astrocyte cell death | effect on H2O2-induced increase of Bax mRNA levels (Bax; 10 min pre-incubation, 1 h 300 µM H2O2): totally prevented the increase of Bax mRNA levels induced by H2O2 | effect on Bax mRNA levels, peptide alone (Bax; 1 h, RT-PCR): had no effect on Bax mRNA levels | effect on H2O2-induced depletion of GSH (mBCl fluorescence) ([2]; ODN 0.1 nM pretreatment, 1 h 300 µM H2O2): prevented the depletion of mBCl fluorescence induced by H2O2 | effect on intracellular GSH content (mBCl fluorescence), peptide alone ([2]; graded ODN 1 fM to 0.1 nM, 1 h): dose-related increase in mBCl fluorescence intensity | effect on H2O2-induced alteration of the mitochondrial membrane potential [3]: suppressed this deleterious effect of H2O2 on the mitochondrial membrane potential | effect on H2O2-induced caspase-3 activation (caspase-3): inhibit H2O2-induced caspase-3 activation | effect on H2O2-induced morphological changes and loss of calcein labeling (cultured rat astrocytes [4]): totally prevented the deleterious effects of H2O2 | ERK phosphorylation (ERK1 and ERK2; ODN 0.1 nM, after 60 min of treatment, percentages of control): 206% | time to detectable increase of ERK phosphorylation (ERK1 and ERK2; ODN 0.1 nM, time-course): ≤ 20 min | effect on ERK phosphorylation (ERK1 and ERK2; graded ODN 1 fM to 0.1 nM, 1 h, Western blot): concentration-related stimulation of ERK phosphorylation
